Test results as given in ChEMBL document CHEMBL3804784, “Sulfatase inhibitors for recidivist breast cancer treatment: A chemical review” (Eur J Med Chem, 2016).

Legend:
Steryl-sulfatase [1] = target: T1, Steryl-sulfatase (Homo sapiens, UniProt P08842); experiment: Inhibition of recombinant human estrone sulfatase expressed in CHO cells using 4-methylumbelliferyl sulfate as substrate by Hanes plot analysis; format: cell-based
T1 sequence (P08842 whole entry): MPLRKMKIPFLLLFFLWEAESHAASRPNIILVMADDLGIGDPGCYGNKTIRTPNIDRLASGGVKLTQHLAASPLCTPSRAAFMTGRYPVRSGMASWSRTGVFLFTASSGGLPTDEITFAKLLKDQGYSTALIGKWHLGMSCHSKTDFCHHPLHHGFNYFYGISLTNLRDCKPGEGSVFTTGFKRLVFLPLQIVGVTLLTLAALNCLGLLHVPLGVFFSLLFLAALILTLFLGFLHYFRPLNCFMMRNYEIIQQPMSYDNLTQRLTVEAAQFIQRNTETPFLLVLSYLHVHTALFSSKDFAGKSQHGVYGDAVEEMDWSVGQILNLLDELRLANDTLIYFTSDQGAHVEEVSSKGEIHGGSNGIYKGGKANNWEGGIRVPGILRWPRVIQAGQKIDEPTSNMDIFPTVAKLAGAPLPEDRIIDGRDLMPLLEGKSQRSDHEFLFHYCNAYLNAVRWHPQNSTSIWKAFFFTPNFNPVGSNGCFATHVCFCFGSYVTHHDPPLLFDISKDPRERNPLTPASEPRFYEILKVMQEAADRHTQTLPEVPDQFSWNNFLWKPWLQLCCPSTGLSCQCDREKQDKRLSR

Steryl-sulfatase [2] = target: T1, Steryl-sulfatase; experiment: Reversible inhibition of recombinant human estrone sulfatase using 4-methylumbelliferyl sulfate as substrate by Hanes plot analysis

Row | Ki (Steryl-sulfatase [1]) [nM] | Ki (Steryl-sulfatase [2]) [nM] | Compound
1 | 890 | – | O=C(NN1[C@@H]2CC[C@H]1CC(C(=O)OCc1ccccc1)C2)NS(=O)(=O)c1ccc(Cl)cc1 (some centres not stated)
2 | – | 500 | O=C(O)c1ccc2sc(C34CC5CC(CC(C5)C3)C4)cc(=O)c2c1
